Assay results as given in patent US11136329B2, “JAK inhibitors” (Vimalan Biosciences, Inc., priority 2019, dated 2021).

Experiments:
Format in all cases: biochemical
[1] = target: JAK2 (Homo sapiens (Human), UniProt O60674); experiment: JAK/TYK2 assay (Kinase Glo luminescence), JAK2; conditions: 0.8 nM enzyme, 2 uM ATP, 4 uM pEY, 1 hr
Protocol: (§1) 10 mM test compound stock or 1 mM control compound stock (tofocitinib, ruxolitinib or staurosporine) in DMSO was diluted to 0.4 mM in DMSO. A 3-fold series dilution was then performed in DMSO to generate 10 different compound concentrations. The assay was carried out in 384-well white plate. 0.5 uL of 40× compound DMSO solution at different concentrations was mixed with 10 uL 2× enzyme prepared in reaction buffer (20 mM HEPES, 10 mM MgCl2, 0.01% Tween, 1 mM DTT, pH 7.5). 10 uL 2× substrate mixture prepared in reaction buffer was then added to start the reaction. A short spin was done to settle down all solutions to the bottom of the plate. Final concentrations of test compound in the reaction mixture were 10000, 3333, 1111, 370, 123, 41.2, 13.7, 4.57, 1.52and 0.51 nM. Concentrations of control compound were ten times less. Enzymatic reaction was conducted at 25° C. for 1-2 hours. 10 uL of Kinase Glo Reagents was added to stop the reaction and generate the luminescent signal which was measured using Envision. Luminescence signal was inversely related to kinase activity. […] The mixture without any compound was the positive control.

[2] = target: JAK1 (Homo sapiens (Human), UniProt P23458); experiment: JAK/TYK2 assay (Kinase Glo luminescence), JAK1; conditions: 7.5 nM enzyme, 2 uM ATP, 30 uM IRS-1, 1 hr
JAK1, sequence (P23458 whole entry, species assumed): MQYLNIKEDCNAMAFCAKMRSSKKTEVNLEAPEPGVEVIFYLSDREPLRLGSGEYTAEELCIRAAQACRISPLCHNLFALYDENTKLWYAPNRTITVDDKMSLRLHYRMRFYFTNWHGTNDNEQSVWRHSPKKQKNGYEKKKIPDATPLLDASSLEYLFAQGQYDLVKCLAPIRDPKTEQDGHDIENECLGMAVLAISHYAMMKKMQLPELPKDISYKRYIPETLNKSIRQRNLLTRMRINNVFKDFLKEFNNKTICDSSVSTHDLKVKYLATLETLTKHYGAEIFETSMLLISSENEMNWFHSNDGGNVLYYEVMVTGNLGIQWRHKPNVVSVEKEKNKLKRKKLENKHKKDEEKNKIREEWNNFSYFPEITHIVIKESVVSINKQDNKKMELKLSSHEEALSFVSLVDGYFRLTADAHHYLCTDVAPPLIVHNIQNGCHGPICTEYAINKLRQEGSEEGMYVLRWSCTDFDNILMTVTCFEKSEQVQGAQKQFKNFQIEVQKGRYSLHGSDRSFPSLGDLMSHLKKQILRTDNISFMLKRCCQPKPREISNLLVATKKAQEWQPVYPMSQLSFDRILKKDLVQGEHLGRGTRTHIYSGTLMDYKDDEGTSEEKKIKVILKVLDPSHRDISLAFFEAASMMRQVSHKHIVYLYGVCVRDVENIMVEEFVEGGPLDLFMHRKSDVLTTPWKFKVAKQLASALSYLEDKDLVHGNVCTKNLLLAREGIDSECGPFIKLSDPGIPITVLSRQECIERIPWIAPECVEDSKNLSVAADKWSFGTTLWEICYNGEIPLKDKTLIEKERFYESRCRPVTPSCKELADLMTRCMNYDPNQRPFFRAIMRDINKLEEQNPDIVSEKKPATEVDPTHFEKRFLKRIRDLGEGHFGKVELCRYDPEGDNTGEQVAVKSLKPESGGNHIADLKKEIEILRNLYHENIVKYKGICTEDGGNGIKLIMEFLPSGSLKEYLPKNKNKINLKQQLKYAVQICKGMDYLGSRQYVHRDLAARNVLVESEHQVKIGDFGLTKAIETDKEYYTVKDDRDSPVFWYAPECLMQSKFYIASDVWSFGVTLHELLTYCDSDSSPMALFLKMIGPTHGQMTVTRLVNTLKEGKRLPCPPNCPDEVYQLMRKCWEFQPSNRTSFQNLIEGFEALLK
Protocol: as §1

[3] = target: TYK2 (Homo sapiens (Human), UniProt P29597); experiment: JAK/TYK2 assay (Kinase Glo luminescence), TYK2; conditions: 9 nM enzyme, 2 uM ATP, 30 uM IRS-1, 1 hr
TYK2, sequence (P29597 whole entry, species assumed): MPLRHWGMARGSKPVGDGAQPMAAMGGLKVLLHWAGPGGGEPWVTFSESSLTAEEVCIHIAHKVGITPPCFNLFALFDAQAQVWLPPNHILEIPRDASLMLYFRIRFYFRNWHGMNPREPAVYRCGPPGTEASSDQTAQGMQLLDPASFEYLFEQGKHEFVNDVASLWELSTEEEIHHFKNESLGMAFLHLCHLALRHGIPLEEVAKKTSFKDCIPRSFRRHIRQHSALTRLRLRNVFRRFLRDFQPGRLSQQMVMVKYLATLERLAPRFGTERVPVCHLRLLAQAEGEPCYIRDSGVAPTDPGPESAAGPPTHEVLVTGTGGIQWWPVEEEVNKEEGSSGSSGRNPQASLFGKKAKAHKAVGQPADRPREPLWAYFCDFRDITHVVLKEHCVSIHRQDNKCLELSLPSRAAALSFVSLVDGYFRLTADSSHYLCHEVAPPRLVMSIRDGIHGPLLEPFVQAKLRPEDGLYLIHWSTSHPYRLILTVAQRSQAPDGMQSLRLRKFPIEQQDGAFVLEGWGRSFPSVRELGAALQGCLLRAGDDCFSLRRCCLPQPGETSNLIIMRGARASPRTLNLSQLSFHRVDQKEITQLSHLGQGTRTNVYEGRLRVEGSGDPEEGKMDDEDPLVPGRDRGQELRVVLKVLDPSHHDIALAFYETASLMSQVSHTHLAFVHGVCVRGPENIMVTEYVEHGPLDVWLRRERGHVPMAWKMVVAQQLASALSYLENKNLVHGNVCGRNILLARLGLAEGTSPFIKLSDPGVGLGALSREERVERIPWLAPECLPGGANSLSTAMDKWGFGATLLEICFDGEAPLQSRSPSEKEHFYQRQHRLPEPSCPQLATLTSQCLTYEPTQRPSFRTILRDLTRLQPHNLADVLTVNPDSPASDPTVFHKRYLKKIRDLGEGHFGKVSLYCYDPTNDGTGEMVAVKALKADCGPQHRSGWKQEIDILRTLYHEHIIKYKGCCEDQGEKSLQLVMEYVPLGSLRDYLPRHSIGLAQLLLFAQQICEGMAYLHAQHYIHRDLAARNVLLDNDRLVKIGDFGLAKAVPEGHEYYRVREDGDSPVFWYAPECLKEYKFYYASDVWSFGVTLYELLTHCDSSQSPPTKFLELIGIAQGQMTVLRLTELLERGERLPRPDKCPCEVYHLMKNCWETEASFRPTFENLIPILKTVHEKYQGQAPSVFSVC
Protocol: as §1

[4] = target: JAK3 (Homo sapiens (Human), UniProt P52333); experiment: JAK/TYK2 assay (Kinase Glo luminescence), JAK3; conditions: 1.5 nM enzyme, 2 uM ATP, 4 uM pEY, 1 hr
JAK3, sequence (P52333 whole entry, species assumed): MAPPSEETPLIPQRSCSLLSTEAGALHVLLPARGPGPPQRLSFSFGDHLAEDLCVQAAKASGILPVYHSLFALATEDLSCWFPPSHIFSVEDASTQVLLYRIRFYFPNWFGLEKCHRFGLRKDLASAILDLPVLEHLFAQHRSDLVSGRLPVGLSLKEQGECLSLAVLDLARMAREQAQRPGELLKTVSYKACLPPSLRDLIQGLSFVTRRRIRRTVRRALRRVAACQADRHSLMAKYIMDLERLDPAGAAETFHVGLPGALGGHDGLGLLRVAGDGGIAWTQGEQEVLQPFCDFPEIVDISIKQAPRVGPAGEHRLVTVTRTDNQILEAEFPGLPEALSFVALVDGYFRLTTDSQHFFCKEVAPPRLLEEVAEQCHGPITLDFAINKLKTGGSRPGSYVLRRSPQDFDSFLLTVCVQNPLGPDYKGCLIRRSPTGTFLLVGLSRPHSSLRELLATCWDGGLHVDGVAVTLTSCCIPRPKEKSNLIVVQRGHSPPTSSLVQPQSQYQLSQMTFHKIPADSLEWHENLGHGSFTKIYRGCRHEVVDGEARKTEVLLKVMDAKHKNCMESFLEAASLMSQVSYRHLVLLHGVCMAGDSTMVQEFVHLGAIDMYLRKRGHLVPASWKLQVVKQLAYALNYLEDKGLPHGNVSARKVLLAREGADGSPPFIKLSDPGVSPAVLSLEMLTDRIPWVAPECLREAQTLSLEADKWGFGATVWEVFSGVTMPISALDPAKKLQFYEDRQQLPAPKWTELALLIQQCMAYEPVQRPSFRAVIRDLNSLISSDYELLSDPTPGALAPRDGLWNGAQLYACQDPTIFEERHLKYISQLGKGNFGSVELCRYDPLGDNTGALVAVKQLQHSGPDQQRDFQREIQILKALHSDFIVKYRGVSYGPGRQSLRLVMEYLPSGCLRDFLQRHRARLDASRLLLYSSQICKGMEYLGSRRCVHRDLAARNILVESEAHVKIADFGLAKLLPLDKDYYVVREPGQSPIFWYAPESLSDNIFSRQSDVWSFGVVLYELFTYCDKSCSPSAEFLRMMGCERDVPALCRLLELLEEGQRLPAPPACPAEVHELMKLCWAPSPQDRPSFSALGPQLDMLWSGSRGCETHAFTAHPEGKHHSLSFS
Protocol: as §1

JAK2, sequence (O60674 whole entry, species assumed): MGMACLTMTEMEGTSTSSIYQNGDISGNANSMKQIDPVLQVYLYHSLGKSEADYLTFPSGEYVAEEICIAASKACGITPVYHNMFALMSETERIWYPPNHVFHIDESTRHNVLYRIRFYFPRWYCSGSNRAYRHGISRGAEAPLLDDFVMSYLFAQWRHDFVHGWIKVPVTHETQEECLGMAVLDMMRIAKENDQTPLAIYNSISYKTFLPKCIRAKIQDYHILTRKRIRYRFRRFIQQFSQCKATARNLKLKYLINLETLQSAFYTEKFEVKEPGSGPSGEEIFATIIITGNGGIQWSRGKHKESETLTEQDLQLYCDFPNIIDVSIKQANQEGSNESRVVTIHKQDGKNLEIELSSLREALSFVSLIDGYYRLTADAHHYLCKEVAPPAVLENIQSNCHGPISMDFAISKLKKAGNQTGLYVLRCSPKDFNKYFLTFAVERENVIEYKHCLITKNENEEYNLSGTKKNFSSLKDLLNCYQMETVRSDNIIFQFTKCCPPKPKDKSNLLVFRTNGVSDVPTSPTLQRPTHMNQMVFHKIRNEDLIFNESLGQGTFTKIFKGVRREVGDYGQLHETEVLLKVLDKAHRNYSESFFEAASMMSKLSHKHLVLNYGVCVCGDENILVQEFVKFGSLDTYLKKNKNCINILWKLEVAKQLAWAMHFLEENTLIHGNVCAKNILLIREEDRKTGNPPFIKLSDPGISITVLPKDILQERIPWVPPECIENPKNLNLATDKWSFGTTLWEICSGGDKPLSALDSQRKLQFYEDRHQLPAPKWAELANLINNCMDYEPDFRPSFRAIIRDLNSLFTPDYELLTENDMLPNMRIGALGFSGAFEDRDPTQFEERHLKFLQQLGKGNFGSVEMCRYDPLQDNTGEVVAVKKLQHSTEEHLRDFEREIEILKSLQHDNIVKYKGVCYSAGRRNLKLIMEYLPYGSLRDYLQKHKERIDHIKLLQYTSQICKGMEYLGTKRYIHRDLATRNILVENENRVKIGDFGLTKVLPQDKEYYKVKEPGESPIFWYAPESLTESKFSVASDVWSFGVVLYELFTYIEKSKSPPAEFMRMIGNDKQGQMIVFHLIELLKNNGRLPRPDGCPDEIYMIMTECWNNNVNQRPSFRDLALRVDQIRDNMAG

Row | Structure (SMILES) | IC50 [1] | IC50 [2] | IC50 [3] | IC50 [4]
1 | CCOC(=O)Cn1cc(Nc2ncc3ccn(CC(CC)CC)c3n2)cn1 [Compound 8, ethyl 2-(4-((7-(2-ethylbutyl)-7H-pyrrolo[2,3-d]pyrimidin-2-yl)amino)-1H-pyrazol-1-yl)acetate] | < 100 nM | < 100 nM | < 100 nM | < 100 nM
2 | CCC(CC)Cn1ccc2cnc(Nc3cnn(CC(=O)O)c3)nc21 [Compound 9, 2-(4-((7-(2-ethylbutyl)-7H-pyrrolo[2,3-d]pyrimidin-2-yl)amino)-1H-pyrazol-1-yl)acetic acid] | < 100 nM | < 100 nM | < 100 nM | < 100 nM
3 | CCOC(=O)Cn1cc(Nc2ncc3ccn(Cc4ccsc4)c3n2)cn1 [Compound 10, ethyl 2-(4-((7-(thiophen-3-ylmethyl)-7H-pyrrolo[2,3-d]pyrimidin-2-yl)amino)-1H-pyrazol-1-yl)acetate] | < 100 nM | < 100 nM | < 100 nM | < 100 nM
4 | O=C(O)Cn1cc(Nc2ncc3ccn(Cc4ccsc4)c3n2)cn1 [Compound 11, 2-(4-((7-(thiophen-3-ylmethyl)-7H-pyrrolo[2,3-d]pyrimidin-2-yl)amino)-1H-pyrazol-1-yl)acetic acid] | < 100 nM | 100 to 1000 nM | < 100 nM | < 100 nM
5 | CCOC(=O)c1ccc(Nc2ncc3ccn(Cc4ccsc4)c3n2)cc1 [Compound 12, ethyl 4-((7-(thiophen-3-ylmethyl)-7H-pyrrolo[2,3-d]pyrimidin-2-yl)amino)benzoate] |  |  |  | 100 to 1000 nM
6 | CCOC(=O)Cn1cc(Nc2ncc3ccn(CC4CCCCC4)c3n2)cn1 [Compound 13, ethyl 2-(4-((7-(cyclohexylmethyl)-7H-pyrrolo[2,3-d]pyrimidin-2-yl)amino)-1H-pyrazol-1-yl)acetate] | < 100 nM | < 100 nM | < 100 nM | < 100 nM
7 | CCOC(=O)Cn1cc(Nc2ncc3ccn(CC4CCC4)c3n2)cn1 [Compound 14, ethyl 2-(4-((7-(cyclobutylmethyl)-7H-pyrrolo[2,3-d]pyrimidin-2-yl)amino)-1H-pyrazol-1-yl)acetate] |  |  |  | < 100 nM
8 | O=C(O)Cn1cc(Nc2ncc3ccn(CC4CCCCC4)c3n2)cn1 [Compound 15, 2-(4-((7-(cyclohexylmethyl)-7H-pyrrolo[2,3-d]pyrimidin-2-yl)amino)-1H-pyrazol-1-yl)acetic acid] | < 100 nM | < 100 nM | < 100 nM | < 100 nM
9 | CCOC(=O)CCn1cc(Nc2ncc3ccn(Cc4ccsc4)c3n2)cn1 [Compound 16, ethyl 3-(4-((7-(thiophen-3-ylmethyl)-7H-pyrrolo[2,3-d]pyrimidin-2-yl)amino)-1H-pyrazol-1-yl)propanoate] | < 100 nM | 100 to 1000 nM | < 100 nM | < 100 nM
10 | CCOC(=O)Cn1cc(Nc2ncc3ccn(CC4CCCC4)c3n2)cn1 [Compound 17, ethyl 2-(4-((7-(cyclopentylmethyl)-7H-pyrrolo[2,3-d]pyrimidin-2-yl)amino)-1H-pyrazol-1-yl)acetate] | < 100 nM | < 100 nM | < 100 nM | < 100 nM
11 | CCOC(=O)Cn1cc(Nc2ncc3ccn(CCC4CCCCC4)c3n2)cn1 [Compound 18, ethyl 2-(4-((7-(2-cyclohexylethyl)-7H-pyrrolo[2,3-d]pyrimidin-2-yl)amino)-1H-pyrazol-1-yl)acetate] | 100 to 1000 nM | > 10000 nM | < 100 nM | < 100 nM
12 | O=C(O)CCn1cc(Nc2ncc3ccn(Cc4ccsc4)c3n2)cn1 [Compound 19, 3-(4-((7-(thiophen-3-ylmethyl)-7H-pyrrolo[2,3-d]pyrimidin-2-yl)amino)-1H-pyrazol-1-yl)propanoic acid] | < 100 nM | < 100 nM | < 100 nM | < 100 nM
13 | CCOC(=O)Cn1cc(Nc2ncc3ccn(CC(C)(C)C)c3n2)cn1 [Compound 20, ethyl 2-(4-((7-neopentyl-7H-pyrrolo[2,3-d]pyrimidin-2-yl)amino)-1H-pyrazol-1-yl)acetate] | 100 to 1000 nM | 100 to 1000 nM | < 100 nM | < 100 nM
14 | CCOC(=O)Cn1cc(Nc2ncc3ccn(CCC(C)C)c3n2)cn1 [Compound 21, ethyl 2-(4-((7-isopentyl-7H-pyrrolo[2,3-d]pyrimidin-2-yl)amino)-1H-pyrazol-1-yl)acetate] | < 100 nM | < 100 nM | < 100 nM | < 100 nM
15 | CCOC(=O)Cn1cc(Nc2ncc3ccn(CC=C(C)C)c3n2)cn1 [Compound 22, ethyl 2-(4-((7-(3-methylbut-2-en-1-yl)-7H-pyrrolo[2,3-d]pyrimidin-2-yl)amino)-1H-pyrazol-1-yl)acetate] | < 100 nM | 100 to 1000 nM | < 100 nM | < 100 nM
16 | CC#CCn1ccc2cnc(Nc3cnn(CC(=O)OCC)c3)nc21 [Compound 23, ethyl 2-(4-((7-(but-2-yn-1-yl)-7H-pyrrolo[2,3-d]pyrimidin-2-yl)amino)-1H-pyrazol-1-yl)acetate] | 100 to 1000 nM | 100 to 1000 nM | 100 to 1000 nM | < 100 nM
17 | CCOC(=O)Cn1cc(Nc2ncc3ccn(CCC#N)c3n2)cn1 [Compound 24, ethyl 2-(4-((7-(2-cyanoethyl)-7H-pyrrolo[2,3-d]pyrimidin-2-yl)amino)-1H-pyrazol-1-yl)acetate] | 100 to 1000 nM | 1000 to 10000 nM | 100 to 1000 nM | 100 to 1000 nM
18 | CCOC(=O)Cn1cc(Nc2ncc3ccn(CC4CC4)c3n2)cn1 [Compound 25, ethyl 2-(4-((7-(cyclopropylmethyl)-7H-pyrrolo[2,3-d]pyrimidin-2-yl)amino)-1H-pyrazol-1-yl)acetate] |  |  |  | < 100 nM
19 | CCOC(=O)c1ccc(Nc2ncc3ccn(CC(CC)CC)c3n2)cc1 [Compound 26, ethyl 4-((7-(2-ethylbutyl)-7H-pyrrolo[2,3-d]pyrimidin-2-yl)amino)benzoate] | 100 to 1000 nM | 100 to 1000 nM | 100 to 1000 nM | 100 to 1000 nM
20 | CCOC(=O)C(C)(C)n1cc(Nc2ncc3ccn(CC(CC)CC)c3n2)cn1 [Compound 27, ethyl 2-(4-((7-(2-ethylbutyl)-7H-pyrrolo[2,3-d]pyrimidin-2-yl)amino)-1H-pyrazol-1-yl)-2-methylpropanoate] | < 100 nM | < 100 nM | < 100 nM | < 100 nM
21 | CCOC(=O)C(C)n1cc(Nc2ncc3ccn(CC(CC)CC)c3n2)cn1 (centres unmarked) [Compound 28, ethyl 2-(4-((7-(2-ethylbutyl)-7H-pyrrolo[2,3-d]pyrimidin-2-yl)amino)-1H-pyrazol-1-yl)propanoate] | < 100 nM | < 100 nM | < 100 nM | < 100 nM
22 | CCOC(=O)c1nc(Cn2ccc3cnc(Nc4cnn(C)c4)nc32)cs1 [Compound 56] | 1000 to 10000 nM | 1000 to 10000 nM |  | 1000 to 10000 nM
23 | CCOC(=O)Cn1ccc2cnc(Nc3cnn(C)c3)nc21 [Compound 57, ethyl 2-(2-((1-methyl-1H-pyrazol-4-yl)amino)-7H-pyrrolo[2,3-d]pyrimidin-7-yl)acetate] | 100 to 1000 nM | 1000 to 10000 nM |  | 1000 to 10000 nM
24 | CCOC(=O)c1ccc(Cn2ccc3cnc(Nc4cnn(C)c4)nc32)s1 [Compound 58, ethyl 5-((2-((1-methyl-1H-pyrazol-4-yl)amino)-7H-pyrrolo[2,3-d]pyrimidin-7-yl)methyl)thiophene-2-carboxylate] |  |  |  | 1000 to 10000 nM
25 | CCOC(=O)Cn1cc(Nc2ncc3c(Cl)cn(CC4CCCCC4)c3n2)cn1 [Compound 60, ethyl 2-(4-((5-chloro-7-(cyclohexylmethyl)-7H-pyrrolo[2,3-d]pyrimidin-2-yl)amino)-1H-pyrazol-1-yl)acetate] |  |  |  | < 100 nM
26 | C=CC(=O)Nc1cccc(Cn2ccc3cnc(Nc4cnn(CC(=O)OCC)c4)nc32)c1 [Compound 95, ethyl 2-(4-((7-(3-acrylamidobenzyl)-7H-pyrrolo[2,3-d]pyrimidin-2-yl)amino)-1H-pyrazol-1-yl)acetate] | 100 to 1000 nM | 100 to 1000 nM |  | 100 to 1000 nM
27 | CCOC(=O)Cn1cc(Nc2ncc3ccn(C[C@H]4CC[C@H](NC)CC4)c3n2)cn1 [Compound 123] | < 100 nM | 100 to 1000 nM | < 100 nM | 
28 | CCOC(=O)Cn1cc(Nc2ncc3ccn(CC4CCS(=O)(=O)CC4)c3n2)cn1 [Compound 125, ethyl 2-(4-((7-((1,1-dioxidotetrahydro-2H-thiopyran-4-yl)methyl)-7H-pyrrolo[2,3-d]pyrimidin-2-yl)amino)-1H-pyrazol-1-yl)acetate] | 1000 to 10000 nM | 1000 to 10000 nM | 100 to 1000 nM | 
29 | CCOC(=O)Cn1cc(Nc2ncc3ccn(CC4CCSCC4)c3n2)cn1 [Compound 126, ethyl 2-(4-((7-((tetrahydro-2H-thiopyran-4-yl)methyl)-7H-pyrrolo[2,3-d]pyrimidin-2-yl)amino)-1H-pyrazol-1-yl)acetate] | < 100 nM | 100 to 1000 nM | < 100 nM | 
